Experimental data reported in ChEMBL document CHEMBL4342498, “Design and Discovery of an Orally Efficacious Spiroindolinone-Based Tankyrase Inhibitor for the Treatment of Colon Cancer” (J Med Chem, 2020).
pIC50: −log10 of the molar value. Converted amounts (≈) assume the structure as drawn.

How the values were obtained:
physchem = conditions: phosphate buffered saline, pH 7.4
[1] = Net efflux ratio of permeability across basolateral to apical side over apical to basolateral side in MDCK2-MDR1 cells to MDCK2 cells; type: ADME, cell-based, Canis lupus familiaris; conditions: dog, mdck
[2] = Stability in human liver microsomes assessed as parent compound remaining at 1 uM measured after 60 mins in presence of NADPH by LC-MS/MS analysis; type: ADME, Microsome; conditions: read-out: Stability
Tankyrase 1/2 [3] = molecular target: T1, Tankyrase 1/2 (Homo sapiens, UniProt Q9H2K2+O95271); conditions: hek293
T1 sequence (Q9H2K2 whole entry): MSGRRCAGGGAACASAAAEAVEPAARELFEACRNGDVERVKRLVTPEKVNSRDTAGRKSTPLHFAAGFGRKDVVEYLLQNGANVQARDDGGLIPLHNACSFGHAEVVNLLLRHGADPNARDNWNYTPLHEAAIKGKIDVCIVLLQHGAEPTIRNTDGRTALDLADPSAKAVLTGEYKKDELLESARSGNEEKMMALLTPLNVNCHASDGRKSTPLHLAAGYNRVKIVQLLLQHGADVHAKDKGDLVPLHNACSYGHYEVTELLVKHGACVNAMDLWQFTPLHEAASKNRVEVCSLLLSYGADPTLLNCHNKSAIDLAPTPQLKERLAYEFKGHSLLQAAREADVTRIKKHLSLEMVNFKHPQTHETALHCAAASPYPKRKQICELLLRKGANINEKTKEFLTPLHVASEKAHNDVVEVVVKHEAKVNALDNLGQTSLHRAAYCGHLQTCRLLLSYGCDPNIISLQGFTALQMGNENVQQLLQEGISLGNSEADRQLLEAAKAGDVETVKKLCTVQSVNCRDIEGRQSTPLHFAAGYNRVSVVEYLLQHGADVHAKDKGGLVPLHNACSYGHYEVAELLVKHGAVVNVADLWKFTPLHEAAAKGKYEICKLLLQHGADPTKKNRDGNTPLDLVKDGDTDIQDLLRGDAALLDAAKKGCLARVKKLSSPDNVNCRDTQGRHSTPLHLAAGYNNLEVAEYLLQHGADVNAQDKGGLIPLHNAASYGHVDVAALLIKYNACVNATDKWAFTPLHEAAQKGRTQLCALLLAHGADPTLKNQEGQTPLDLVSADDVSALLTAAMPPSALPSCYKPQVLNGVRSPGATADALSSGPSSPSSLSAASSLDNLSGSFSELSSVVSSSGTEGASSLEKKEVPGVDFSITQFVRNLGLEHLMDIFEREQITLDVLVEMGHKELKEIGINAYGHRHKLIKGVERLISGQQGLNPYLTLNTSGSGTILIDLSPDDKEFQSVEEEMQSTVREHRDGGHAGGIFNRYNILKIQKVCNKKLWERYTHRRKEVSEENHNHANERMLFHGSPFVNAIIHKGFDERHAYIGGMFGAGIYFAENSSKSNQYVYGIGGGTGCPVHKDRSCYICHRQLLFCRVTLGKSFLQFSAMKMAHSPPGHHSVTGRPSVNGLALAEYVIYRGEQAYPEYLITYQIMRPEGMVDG
T1 sequence (O95271 whole entry): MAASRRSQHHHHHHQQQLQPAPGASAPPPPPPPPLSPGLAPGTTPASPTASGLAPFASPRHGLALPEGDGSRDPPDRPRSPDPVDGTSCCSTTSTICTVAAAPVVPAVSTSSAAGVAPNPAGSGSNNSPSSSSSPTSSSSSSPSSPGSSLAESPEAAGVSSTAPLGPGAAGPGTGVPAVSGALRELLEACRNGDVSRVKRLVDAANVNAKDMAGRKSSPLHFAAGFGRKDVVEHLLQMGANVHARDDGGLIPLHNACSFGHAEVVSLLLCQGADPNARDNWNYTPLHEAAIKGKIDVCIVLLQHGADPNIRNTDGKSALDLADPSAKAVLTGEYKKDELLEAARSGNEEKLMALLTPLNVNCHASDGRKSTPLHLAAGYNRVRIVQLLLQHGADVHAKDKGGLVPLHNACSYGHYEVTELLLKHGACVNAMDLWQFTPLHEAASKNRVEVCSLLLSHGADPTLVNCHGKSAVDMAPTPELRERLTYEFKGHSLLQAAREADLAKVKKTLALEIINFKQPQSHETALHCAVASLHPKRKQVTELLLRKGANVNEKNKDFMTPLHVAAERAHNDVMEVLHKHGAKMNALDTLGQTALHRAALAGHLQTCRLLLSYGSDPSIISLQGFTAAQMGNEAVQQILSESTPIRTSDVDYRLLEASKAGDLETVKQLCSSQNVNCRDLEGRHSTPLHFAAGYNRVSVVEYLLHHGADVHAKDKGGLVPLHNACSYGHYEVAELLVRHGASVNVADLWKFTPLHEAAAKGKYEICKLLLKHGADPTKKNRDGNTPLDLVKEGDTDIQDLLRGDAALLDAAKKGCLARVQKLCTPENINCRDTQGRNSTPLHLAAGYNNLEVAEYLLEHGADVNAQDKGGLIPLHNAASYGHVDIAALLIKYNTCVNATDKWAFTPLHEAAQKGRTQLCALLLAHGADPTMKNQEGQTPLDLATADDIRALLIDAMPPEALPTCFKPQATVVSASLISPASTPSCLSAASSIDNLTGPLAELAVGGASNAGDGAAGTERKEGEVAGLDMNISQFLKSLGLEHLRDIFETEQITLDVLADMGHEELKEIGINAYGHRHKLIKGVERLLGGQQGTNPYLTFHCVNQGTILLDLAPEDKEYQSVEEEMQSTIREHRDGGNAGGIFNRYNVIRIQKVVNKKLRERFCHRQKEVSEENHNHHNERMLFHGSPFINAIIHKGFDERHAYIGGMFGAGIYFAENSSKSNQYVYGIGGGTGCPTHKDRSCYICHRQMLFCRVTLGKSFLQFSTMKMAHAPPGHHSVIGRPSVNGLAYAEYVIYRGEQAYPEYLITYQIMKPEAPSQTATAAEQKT
Description: Inhibition of TNKS/TNKS2 (unknown origin) expressed in HEK293 cells assessed as reduction in Wnt-signaling measured after 24 hrs by TCF-luciferase reporter gene assay

[4] = Stability in mouse liver microsomes assessed as parent compound remaining at 1 uM measured after 60 mins in presence of NADPH by LC-MS/MS analysis; type: ADME, Microsome; conditions: read-out: Stability
[5] = molecular target: T2, Poly [ADP-ribose] polymerase tankyrase-1 (Homo sapiens, UniProt O95271)
T2 sequence (O95271 whole entry): T1 sequence (O95271 whole entry)
Description: Inhibition of recombinant human N-terminal TEV cleavage site-fused/FLAG-poly his-tagged TNKS SAM-PARP domain (1024 to 1327 residues) expressed in Escherichia coli assessed as reduction in auto-PARylation preincubated for 10 mins followed by biotinylated-NAD+ addition and measured after 45 mins by ELISA

Tankyrase 1/2 [6] = molecular target: T1, Tankyrase 1/2
Description: Inhibition of TNKS/TNKS2 (unknown origin) expressed in human DLD1 cells assessed as reduction in Wnt-signaling measured after 24 hrs by TCF-luciferase reporter gene assay

[7] = molecular target: T3, Poly [ADP-ribose] polymerase tankyrase-2 (Homo sapiens, UniProt Q9H2K2); assay: Inhibition of recombinant human N-terminal TEV cleavage site-fused/FLAG-poly his-tagged TNKS2 ARC5-SAM-PARP domain (613 to 1166 residues) expressed in Escherichia coli assessed as reduction in auto-PARylation preincubated for 10 mins followed by biotinylated-NAD+ addition and measured after 45 mins by ELISA
T3 sequence (Q9H2K2 whole entry): T1 sequence (Q9H2K2 whole entry)

[8] = Efflux ratio of permeability across basolateral to apical side over apical to basolateral side in MDCK2 cells; type: ADME, cell-based, Canis lupus familiaris, MDCK-II; conditions: dog, mdck
MDR1 = assay: Efflux ratio of permeability across basolateral to apical side over apical to basolateral side in MDCK2-MDR1 cells; type: ADME, cell-based, Canis lupus familiaris; conditions: dog, MDCK-MDR1
COLO 320DM = assay: Antiproliferative activity against human COLO320DM cells assessed as inhibition of cell growth measured after 4 days by CellTiter-Glo assay; type: functional; conditions: 96 h

| solubility at 1 h, 200 µM (physchem) [µg/mL] | Ratio [1] | remaining at 1 h, 1 µM [2] [%] | IC50 (Tankyrase 1/2 [3]) [nM] | remaining at 1 h, 1 µM [4] [%] | pIC50 [5] | IC50 (Tankyrase 1/2 [6]) [nM] | pIC50 [7] | efflux ratio [8] | efflux ratio (MDR1) | GI50 (COLO 320DM) [nM] | SMILES |
| --- | --- | --- | --- | --- | --- | --- | --- | --- | --- | --- | --- |
| 4.8 (≈ 11.2 µM) | 2.5 | 1.9 | 0.2 | 0 | 8.36 | 4.5 | 8.21 | 1.1 | 2.7 | 130 | COc1cc(F)c2c(c1)N(C)C(=O)C21CCN(c2nc3c(c(=O)[nH]2)CCCN3C)CC1 |
| 188 (≈ 348 µM) | 6.6 | 56.5 | 1.2 | 83.5 | 8.10 | 6.3 | 7.73 | 13.1 | 86.4 | 740 | CN1CCN(CCOc2cc(F)c3c(c2)N(C)C(=O)C32CCN(c3nc4c(c(=O)[nH]3)CCCN4C)CC2)CC1 |
| – | – | – | 36.5 | – | 7.27 | 140.6 | 7.13 | – | – | 5010 | CN1CCc2c1nc(N1CCC3(CC1)CN(CCO)c1cc(F)cc(F)c13)[nH]c2=O |
| – | – | – | 1.5 | – | 8.35 | 6.3 | 7.99 | – | – | > 20000 | Cn1ccc2c(=O)[nH]c(N3CCC4(CC3)C(=O)N(CCO)c3cc(F)cc(F)c34)nc21 |
| 3 (≈ 6.08 µM) | 3.6 | 4.1 | 0.1 | 0.1 | 8.37 | 5.7 | 8.26 | 3.3 | 12 | 530 | CN1CCCc2c1nc(N1CCC3(CC1)C(=O)N(CS(C)(=O)=O)c1cc(F)cc(F)c13)[nH]c2=O |
| 100 (≈ 196 µM) | 3.1 | 61.5 | 0.4 | 100 | 7.95 | 6.6 | 7.91 | 7.1 | 21.9 | 1080 | CN1CCCc2c1nc(N1CCC3(CC1)C(=O)N(C)c1cc(OCCN4CCCC4)cc(F)c13)[nH]c2=O |
| 102 (≈ 201 µM) | 2.5 | 22.4 | 0.1 | 60.3 | 8.21 | 2.7 | 7.67 | 4.6 | 11.7 | 660 | CN1CCC(Oc2cc(F)c3c(c2)N(C)C(=O)C32CCN(c3nc4c(c(=O)[nH]3)CCCN4C)CC2)CC1 |
| – | – | – | 1.1 | – | 8.42 | 7.1 | 8.15 | – | – | 3560 | Cn1ccc2c(=O)[nH]c(N3CCC4(CC3)CN(CCO)c3cc(F)cc(F)c34)nc21 |
| 95 (≈ 196 µM) | 2.5 | 54.4 | 0.3 | 83.7 | 8.31 | 6.1 | 7.95 | 9.2 | 22.7 | 810 | CN(C)CCOc1cc(F)c2c(c1)N(C)C(=O)C21CCN(c2nc3c(c(=O)[nH]2)CCCN3C)CC1 |
| – | – | – | 4.4 | – | 7.85 | 32.9 | 7.56 | – | – | 2370 | CN1CCc2c1nc(N1CCC3(CC1)C(=O)N(CCO)c1cc(F)cc(F)c13)[nH]c2=O |
| 88.2 (≈ 185 µM) | 3.9 | 23.9 | 0.7 | 42.7 | 8.05 | 14.5 | 7.90 | 11.2 | 43.7 | 710 | CN1CCCc2c1nc(N1CCC3(CC1)C(=O)N(CC(O)CO)c1cc(F)cc(F)c13)[nH]c2=O (centres undefined) |
| 50.5 (≈ 115 µM) | 5.1 | 6.1 | 0.2 | 1.2 | 8.43 | 1.6 | 8.21 | 2.3 | 11.7 | 440 | CN1CCCc2c1nc(N1CCC3(CC1)C(=O)N(CC#N)c1cc(F)cc(F)c13)[nH]c2=O |
| 16 (≈ 38.5 µM) | 2.8 | 0.3 | 3.9 | 0 | 8.10 | 14.4 | 7.97 | 1.1 | 3.1 | 220 | CN1CCCc2c1nc(N1CCC3(CC1)C(=O)N(C)c1cc(F)cc(F)c13)[nH]c2=O |
| – | – | – | 2.1 | – | 7.83 | 71.2 | 7.69 | – | – | 2270 | O=C1N(CCO)c2cc(F)cc(F)c2C12CCN(c1nc3c(c(=O)[nH]1)CCCC3)CC2 |
| – | – | – | 3.1 | – | 8.26 | 13.7 | 8.07 | – | – | 720 | Cc1cccc2c(=O)[nH]c(N3CCC4(CC3)CN(CCO)c3cc(F)cc(F)c34)nc12 |
| – | – | – | 0.2 | – | 8.28 | 4.8 | 8.47 | – | – | 2490 | Cc1cccc2c(=O)[nH]c(N3CCC4(CC3)C(=O)N(CCO)c3cc(F)cc(F)c34)nc12 |
